Bridge positions count the residues as written; N and C are the ends. Peptide text beside a SMILES is read from it.
Tested on: IL-6 production by fibroblast-like synoviocytes (FLS)
Experiment: Expression of IL-6 by stimulated FLS
Type: cell-based, DA rat
Settings: RTD-1 10 μg/ml; TNFα or IL-1β 3 or 10 ng/ml; 24 h; ELISA; n = 12, 3 experiments
Method: Fibroblast-like synoviocytes (FLS) were isolated by enzymatic digestion of the synovial tissue from DA rats with PIA as previously described. Cells were washed and suspended in DMEM supplemented with 10% fetal bovine serum (Gibco, Grand Island, NY), 30 mg/ml L-glutamine (Sigma), 250 μg/ml amphotericin B (Sigma), and […] gentamicin (Gibco). After overnight culture, non-adherent cells were removed and adherent cells were cultured to approximately 70–90% confluence and passaged following detachment with 0.25% trypsin-EDTA for 3 min at 37°C. All experiments were performed with FLS after at least four passages.
FLS were cultured in 12-well plates at 4–6 × 10^4 cells/well for 24 h (viability > 95% by trypan blue staining). Medium was replaced and FLS were incubated with TNFα or IL-1β at final concentrations of 3 or 10 ng/ml plus RTD-1 (10 μg/ml in 0.01% acetic acid (HOAc)) or vehicle alone. After 24 h incubation, FLS culture supernatants were removed, clarified by centrifugation, and analyzed for IL-6 by ELISA (Invitrogen, Carlsbad, CA).

In the case of `CC[C@H](C)[C@@H]1NC(=O)[C@@H]2CSSC[C@H](NC(=O)[C@H](CCCNC(=N)N)NC(=O)[C@@H]3CSSC[C@H](NC1=O)C(=O)N[C@@H]([C@@H](C)O)C(=O)N[C@@H](CCCNC(=N)N)C(=O)NCC(=O)N[C@@H](Cc1ccccc1)C(=O)N3)C(=O)N[C@@H](CC(C)C)C(=O)N[C@H]1CSSC[C@H](NC(=O)[C@H](C(C)C)NC(=O)CNC(=O)[C@H](CCCNC(=N)N)NC(=O)[C@H](CCCNC(=N)N)NC1=O)C(=O)N[C@@H](CCCNC(=N)N)C(=O)N2` [RTD-1, rhesus θ-defensin 1] (cyclo(GFCRCLCRRGVCRCICTR); disulfide 3-16, 5-14, 7-12), the “reduction of IL-6 production by FLS” value is reported as 27.3–42.2%.

Reference: publication PMC5690597, “Suppression and resolution of autoimmune arthritis by rhesus θ-defensin-1, an immunomodulatory macrocyclic peptide” (PLoS ONE, 2017)
